Test results reported in paper PMC9505538, “P-Glycoprotein (MDR1/ABCB1) Restricts Brain Accumulation of the Novel EGFR Inhibitor EAI045 and Oral Elacridar Coadministration Enhances Its Brain Accumulation and Oral Exposure” (Pharmaceuticals, 2022).

Target: T1, human ABCG2 (Homo sapiens, UniProt Q9UNQ0)
T1 construct: expressed in transfected cells; host or cells: MDCK-II cells, stably transduced, generated in the authors' institute
T1 sequence (Q9UNQ0 1-655): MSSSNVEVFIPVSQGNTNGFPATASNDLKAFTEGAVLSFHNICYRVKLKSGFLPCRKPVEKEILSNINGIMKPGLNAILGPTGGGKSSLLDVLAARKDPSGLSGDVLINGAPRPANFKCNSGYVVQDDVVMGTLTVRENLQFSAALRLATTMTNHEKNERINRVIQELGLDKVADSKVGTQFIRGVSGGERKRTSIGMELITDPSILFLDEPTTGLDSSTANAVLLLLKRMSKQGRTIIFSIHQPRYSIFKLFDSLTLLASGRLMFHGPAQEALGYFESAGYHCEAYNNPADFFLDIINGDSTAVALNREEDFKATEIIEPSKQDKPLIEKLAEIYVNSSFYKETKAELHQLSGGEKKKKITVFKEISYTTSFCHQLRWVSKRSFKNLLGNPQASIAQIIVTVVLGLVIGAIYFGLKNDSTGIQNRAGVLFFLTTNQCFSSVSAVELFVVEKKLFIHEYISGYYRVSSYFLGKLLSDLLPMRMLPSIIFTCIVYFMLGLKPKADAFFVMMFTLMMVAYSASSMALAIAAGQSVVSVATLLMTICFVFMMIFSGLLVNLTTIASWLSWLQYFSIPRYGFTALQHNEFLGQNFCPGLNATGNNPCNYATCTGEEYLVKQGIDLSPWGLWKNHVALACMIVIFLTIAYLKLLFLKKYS
Test: Transepithelial transport of EAI045, MDCK-II cells transduced with human ABCG2
Format: in vitro ADME
Conditions: for efflux ratio r (relative transport ratio): EAI045 5 μM
Method: Transport of EAI045 (5 μM) across epithelia was tested using cell layers of Madin–Darby Canine Kidney (MDCK-II) cells and derived clones expressing hABCB1, hABCG2, or mAbcg2 cDNA. […] In cells overexpressing hABCB1, there was clear transport of EAI045 in the apical direction (r = 5.5, Figure 1C). […] To evaluate the interaction between hABCG2 and mAbcg2 and EAI045, zosuquidar (5 μM) was added to inhibit any endogenous canine ABCB1. In cells overexpressing hABCG2, the BA transport of EAI045 was somewhat increased relative to the AB transport, resulting in an efflux ratio of 1.4 (Figure 1E).
Figure 1 In vitro transepithelial transport of EAI045 (5 μM) using MCDK-II parental cells (A,B) or transduced with human ABCB1 (C,D), human ABCG2 (E,F), or murine Abcg2 (G,H) cDNA. At t = 0 EAI045 was added in the donor compartment (either apical or basolateral). At 1, 2, and 4 h EAI045 was quantified in the acceptor compartment and the cumulative total transported amount per well was plotted (n = 3). Zosuquidar (5 μM) was added to inhibit the human and/or the endogenous ABCB1, while Ko143 (5 μM) was added to inhibit the human or murine ABCG2. r, relative transport ratio. […] Points, mean; bars, SD. TEXT PRINTED IN THE PICTURE: (A) no label printed: Parental: r = 1.7 | (B) no label printed: Parental + Zos.: r = 1.1 | (C) no label printed: hABCB1: r = 5.5 | (D) no label printed: hABCB1 + Zos.: r = 1.3 | (E) no label printed: hABCG2 + Zos.: r = 1.4 | (F) no label printed: hABCG2 + Zos. + Ko143: r = 1.1 | (G) no label printed: mAbcg2 + Zos.: r = 1.8 | (H) no label printed: mAbcg2 + Zos. + Ko143: r = 1.4
Madin–Darby Canine Kidney (MDCK-II) cells (ECACC 00062107) stably transduced with human (h) ABCB1, hABCG2, or mouse (m) Abcg2 cDNA were generated in our institute between 1998 and 2005. […] In short, cells were allowed to grow an intact monolayer in 3 days, which was monitored with transepithelial electrical resistance (TEER) measurements, both before and after the transport phase. […] Proper functionality of these cell lines was monitored by continual testing with a variety of drug substrates.

- efflux ratio r (relative transport ratio) (hABCG2 + zosuquidar 5 μM): 1.4
- efflux ratio r (relative transport ratio) (hABCG2 + zosuquidar 5 μM + Ko143 5 μM): 1.1
- transport by human ABCG2 (in vitro): at best slightly transported
Compound: O=C(Nc1nccs1)C(c1cc(F)ccc1O)N1Cc2ccccc2C1=O (stereo not drawn) [EAI045]
